Source: patent US11491145B2, “Combination therapies comprising targeted therapeutics” (priority 2017, dated 2022)

Test: Average weight changes in H460 model
Format: in vivo
Details: SCID mice, tracked 21 days, weight loss also in vehicle group, FIG. 1B
Description: In this study, each study group included 8 SCID mice with H460 xenograft. Each group received vehicle (once per week), talazoparib (0.3 mg/kg, one does per day for 4-5 days per week), SDC-TRAP-0063 (100 mg/kg, once per week), or a combination therapy of SDC-TRAP-0063 (100 mg/kg, once per week) and talazoparib (0.3 mg/kg, 5 days per week).
Average weight changes were also tracked for 21 days and the results for the groups treated with talazoparib, SDC-TRAP-0063, and a combination of SDC-TRAP-0063 and talazoparib were shown in FIG. 1B.

Cn1ncnc1[C@H]1c2n[nH]c(=O)c3cc(F)cc(c23)N[C@@H]1c1ccc(F)cc1 [talazoparib, Talazoparib]
average weight changes (weight loss): Weight loss was observed
